The subject of assay [1] is AMPAr currents in hippocampal CA1 pyramidal neurons. In words: whole-cell patch-clamp, isolated AMPAr EPSCs evoked by Schaffer collateral stimulation (series 2). The class given is cell-based, C57Bl6/J mice. The note with it: after 10 min wash-out of NX218 250 μg/mL (T30); mean of 10 neurons. An excerpt:
Twelve (C57Bl6/J) male mice 4-5 weeks-old were obtained from Charles River, France and housed in an animal facility. Animal care was compliant with national and local Ethics committee recommendations. Sagittal hippocampal brain slices were obtained using standard brain slicing methods (approximately 6 slices per mouse) (Knobloch et al. 2007). Mice were anesthetized with isoflurane and then decapitated. Brain was dissected out of the cranium and immediately immersed in ice-cold freshly prepared aCSF containing: 124 mM NaCl, 3.75 mM KCl, 2 mM MgSO4, 2 mM CaCl2, 26.5 mM NaHCO3, 1.25 mM NaH2PO4, 10 mM glucose, continuously oxygenated (pH=7.4) for a total duration of 3-4 minutes. Acute slices (350 μm thick) were prepared using a vibratome (VT 1000S; Leica Microsystems, Bannockburn, IL). Sections were incubated in standard aCSF at room temperature for at least 1 h before recordings. […]
The signal was amplified with an Axopatch 200B amplifier (Molecular Devices, Union City, CA), digitized by a Digidata 1550 interface (Molecular Devices) and […]. Recordings were acquired using Clampex (Molecular Devices) and analyzed with Clampfit (Molecular Devices). […]
In general terms: Patch clamp records ionic current or voltage across a cell membrane.

The test system of the next assay is GluN2A. In words: GluN2A level in cortical samples of subchronic PCP mice (WES automated protein analysis). The class given is in vivo, Swiss CD-1 mice. To be noted: PCP + NX218 5 mg/kg D14; PCP alone 73.44; n=5. Here is the method: PCP (or saline for control group) was administered at a dose of 0.2 mg/kg by subcutaneous injections twice daily for 12 days (day 0 to day 11).
Approximately 5 minutes after the test, mice were anaesthetized with 5% isoflurane oxygen mixture. Brains were extracted immediately, then the cortex of each hemisphere were collected. Right and left cortices were transferred into clean pre-labelled microtubes and the exact weight of each sample was recorded. Finally, samples were stored at −80° C. for further analysis.
Brain samples were lysed with a defined buffer lysis consisting of CelLyticMT reagent with 1% of protease and phosphatase inhibitor cocktail (60 μL per well). Lysates were processed at +4° C. and stored at −80° C. at the end of the experiment. For each sample, the quantity of proteins was determined using the micro kit BCA (Pierce). Briefly, lysates were centrifuged and diluted at 1/20 in PBS and mixed, in equal volume, with a micro BCA. After an incubation at 60° C. for 1 hour, the quantity of proteins was measured at 562 nm with a spectrophotometer Nanovue (GE Healthcare) and compared with the standard of Bovine Serum Albumin curve (BSA, Pierce).
Automated protein analysis were performed using the WES™ system (ProteinSimple®): […]
Each protein was evaluated independently. […] 5 samples (biological replicates) per condition were analyzed.

Positions of bridges follow the written chain, without caps; N, C: chain ends. No end group written: not given here.

For the substance “W-S-G-W-S-S-C-S-R-S-C-G [NX218] (WSGWSSCSRSCG; disulfide 7-11 (inferred))”, the “Amplitude of evoked isolated AMPA excitatory postsynaptic currents” value in assay [1] was determined as 153 pA. Moreover, the “GluN2A level in cortical samples” value with GluN2A was 116.46 % of control.

The values are drawn from patent publication US20250177481A1, “SCO-spondin-derived polypeptides for enhancing synaptic transmission” (AXOLTIS PHARMA, priority 2021, published 2025).
